As a reminder, the IC50 is the midpoint of a concentration-inhibition curve.

Chain of human PD-L1 / Human PD-1 (Q9NZQ7 19-239): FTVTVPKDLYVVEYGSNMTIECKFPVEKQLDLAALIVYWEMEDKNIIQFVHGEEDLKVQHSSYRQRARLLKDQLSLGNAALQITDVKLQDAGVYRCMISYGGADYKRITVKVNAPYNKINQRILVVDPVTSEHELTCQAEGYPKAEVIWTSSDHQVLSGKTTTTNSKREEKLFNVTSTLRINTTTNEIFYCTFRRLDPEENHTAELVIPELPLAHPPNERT

In the assay the target is human PD-L1 / Human PD-1 (Homo sapiens (Human), UniProt Q9NZQ7). The assay can be described thus: Enzyme-Linked Immunosorbent Assay (ELISA), PD-1/PD-L1 binding. As to conditions: Table 3; plate-coated human PD-L1, biotinylated human PD-1; read-out: ELISA IC50. The procedure, abridged:
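Human PD-L1 coated at 1 μg/mL overnight at 4° C; samples diluted 1:5 and incubated with human PD-1 and biotin (0.3 μg/mL) for 1 h at 37° C. Bound PD-1 detected with streptavidin-HRP and TMB (20 min, 37° C), acid-stopped, absorbance at 450 nm.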
(In an ELISA, binding on a coated surface is turned into a signal by an enzyme label.)
For `N#Cc1cncc(COc2cc(O[C@H]3CCc4c(-c5ccccc5F)cccc43)c(Cl)cc2CN[C@@H]2CCC[C@H]2O)c1` [Example 3.018], the IC50 is less than 100 nM. For `N#Cc1cncc(COc2cc(O[C@H]3CCc4c(-c5ccccc5F)cccc43)c(Cl)cc2CN[C@H]2CCC[C@@H]2O)c1` [Example 3.019] the value was less than 100 nM. On to `N#Cc1cc(COc2cc(O[C@H]3CCc4c(-c5cccc(O)c5F)cccc43)c(Cl)cc2CN[C@@H](CO)C(=O)O)cc(NC=O)c1` [Example 3.020], for which the IC50 is less than 100 nM. The value for `N#Cc1cncc(COc2cc(O[C@H]3CCc4c(-c5ccccc5F)cccc43)c(Cl)cc2CN[C@H]2CCCC[C@@H]2O)c1` [Example 3.021] was less than 100 nM. For `N#Cc1cc(C#N)cc(COc2cc(O[C@H]3CCc4c(-c5ccccc5)cccc43)c(Cl)cc2CN[C@@H](CO)C(=O)O)c1` [Example 3.022] the value was less than 100 nM; for `NCCCC[C@H](NCc1cc(Cl)c(O[C@H]2CCc3c(-c4ccccc4F)cccc32)cc1OCc1cncc(C(=O)O)c1)C(=O)O` [Example 3.023], 100 to 500 nM. For `N#Cc1cncc(COc2cc(O[C@H]3CCc4c(-c5ccccc5F)cccc43)c(Cl)cc2CN[C@@H](CO)C(=O)O)c1` [Example 3.024] the value was less than 100 nM. On to `Cc1cncc(COc2cc(O[C@H]3CCc4c(-c5ccc6c(c5F)OCCO6)cccc43)c(Cl)cc2CN[C@@H](CO)C(=O)O)c1` [Example 3.025], for which the IC50 is less than 100 nM.

Regarding `N#Cc1ccnc(COc2cc(O[C@H]3CCc4c(-c5ccc6c(c5F)OCCO6)cccc43)c(Cl)cc2CN[C@@H](CO)C(=O)O)c1` [Example 3.026], the IC50 was less than 100 nM. For the compound `O=C(O)[C@H](CO)NCc1cc(Cl)c(O[C@H]2CCc3c(-c4ccc5c(c4F)OCCO5)cccc32)cc1OCc1cncc(Cl)c1` [Example 3.027], the IC50 was less than 100 nM. The value for `N#Cc1cncc(COc2cc(O[C@H]3CCc4c(Br)cccc43)c(Cl)cc2CN[C@@H](CO)C(=O)O)c1` [Example 3.028] was 500 to 20000 nM; that for `O=C(O)c1cncc(COc2cc(O[C@H]3CCc4c(-c5ccccc5F)cccc43)c(Cl)cc2CN[C@@H](CO)C(=O)O)c1` [Example 3.029] was 100 to 500 nM. For `O=C(O)c1cncc(COc2cc(O[C@H]3CCc4c(-c5ccc6c(c5F)OCCO6)cccc43)c(Cl)cc2CN[C@@H](CO)C(=O)O)c1` [Example 3.030] the value was 100 to 500 nM; for `CCOC(=O)[C@](C)(CO)NCc1cc(Cl)c(O[C@H]2CCc3c(-c4ccc5c(c4F)OCCO5)cccc32)cc1OCc1cncc(C#N)c1` [Example 3.031], 100 to 500 nM. In the case of `N#Cc1cncc(COc2cc(O[C@H]3CCc4c(-c5ccccc5F)cccc43)c(Cl)cc2CN[C@@H]2CCCC[C@@H]2O)c1` [Example 3.032], the IC50 was less than 100 nM. In the case of `N#Cc1cncc(COc2cc(O[C@H]3CCc4c(-c5ccc6c(c5F)OCCO6)cccc43)c(Cl)cc2CN[C@@H]2CCC[C@H]2O)c1` [Example 3.033], the IC50 was less than 100 nM.

For `N#Cc1cncc(COc2cc(O[C@H]3CCc4c(-c5ccc6c(c5F)OCCO6)cccc43)c(Cl)cc2CN[C@@H](CCO)C(=O)O)c1` [Example 3.034], the IC50 is less than 100 nM. Consider `COC(=O)[C@](C)(CO)NCc1cc(Cl)c(O[C@H]2CCc3c(-c4ccc5c(c4F)OCCO5)cccc32)cc1OCc1cncc(C#N)c1` [Example 3.035], for which the IC50 lay in the range of 100 to 500 nM. `N#Cc1cncc(COc2cc(O[C@H]3CCc4c(-c5ccc6c(c5F)OCCO6)cccc43)c(Cl)cc2CN[C@H]2CCCC[C@@H]2C(=O)O)c1` [Example 3.036]: the IC50 lay within 100 to 500 nM. For the compound `N#Cc1cncc(COc2cc(O[C@H]3CCc4c(-c5ccccc5F)cccc43)c(Cl)cc2CN[C@@H]2CCOC[C@H]2O)c1` [Example 3.037], the half-maximal inhibitory concentration (IC50) was less than 100 nM.

With `N#Cc1cncc(COc2cc(O[C@H]3CCc4c(-c5ccccc5F)cccc43)c(Cl)cc2CN[C@@H]2COC[C@H]2O)c1` [Example 3.039], the IC50 was less than 100 nM. For `N#Cc1cncc(COc2cc(O[C@H]3CCc4c(-c5ccccc5F)cccc43)c(Cl)cc2CN[C@H]2CCC[C@H](O)C2)c1` [Example 3.040] the value was less than 100 nM; for `N#Cc1cncc(COc2cc(O[C@H]3CCc4c(-c5ccc6c(c5F)OCCO6)cccc43)c(Cl)cc2CN[C@H]2CONC2=O)c1` [Example 3.042], 500 to 20000 nM. In the case of `N#Cc1cncc(COc2cc(O[C@H]3CCc4c(-c5ccccc5F)cccc43)c(Cl)cc2CN[C@@H](CO)C(=O)NCC(=O)NCC(=O)O)c1` [Example 3.043], the IC50 is less than 100 nM. The value for `N#Cc1cncc(COc2cc(O[C@H]3CCc4c(-c5ccccc5F)cccc43)c(Cl)cc2CN[C@@H](CO)C(=O)NCC(=O)O)c1` [Example 3.044] was less than 100 nM; that for `CC(C)OC(=O)[C@@H](NCc1cc(Cl)c(O[C@H]2CCc3c(-c4ccc5c(c4F)OCCO5)cccc32)cc1OCc1cncc(C#N)c1)[C@@H](C)O` [Example 3.045] was 500 to 20000 nM. In the case of `CC(C)OC(=O)[C@H](CO)NCc1cc(Cl)c(O[C@H]2CCc3c(-c4ccc5c(c4F)OCCO5)cccc32)cc1OCc1cncc(C#N)c1` [Example 3.046], the IC50 was 500 to 20000 nM. The value for `C[C@H](NCc1cc(Cl)c(O[C@H]2CCc3c(-c4ccccc4F)cccc32)cc1OCc1cncc(C#N)c1)C(=O)N[C@@H](CO)C(=O)O` [Example 3.047] was less than 100 nM; that for `N#Cc1cncc(COc2cc(O[C@H]3CCc4c(-c5ccccc5F)cccc43)c(Cl)cc2CN[C@@H](CO)C(=O)N[C@@H](CO)C(=O)N[C@@H](CO)C(=O)O)c1` [Example 3.048] was less than 100 nM. The value for `C[C@H](NC(=O)[C@H](CO)NCc1cc(Cl)c(O[C@H]2CCc3c(-c4ccccc4F)cccc32)cc1OCc1cncc(C#N)c1)C(=O)O` [Example 3.049] was less than 100 nM.

As to `N#Cc1cncc(COc2cc(O[C@H]3CCc4c(-c5ccccc5F)cccc43)c(Cl)cc2CNCC(=O)N[C@@H](CO)C(=O)O)c1` [Example 3.050], the IC50 lay within 100 to 500 nM. For `N#Cc1cncc(COc2cc(O[C@H]3CCc4c(-c5ccccc5F)cccc43)c(Cl)cc2CNCCCN2CCS(=O)(=O)CC2)c1` [Example 3.051] the value was 100 to 500 nM; for `CC(Cc1ccccn1)NCc1cc(Cl)c(O[C@H]2CCc3c(-c4ccccc4F)cccc32)cc1OCc1cncc(C#N)c1` (some centres unmarked) [Example 3.052], 100 to 500 nM; for `C[C@@H](O)[C@H](NCc1cc(Cl)c(O[C@H]2CCc3c(-c4ccc5c(c4F)OCCO5)cccc32)cc1OCc1cncc(C#N)c1)C(=O)O` [Example 3.053], less than 100 nM. Take `N#Cc1cncc(COc2cc(O[C@H]3CCc4c(-c5ccc6c(c5F)OCCO6)cccc43)c(Cl)cc2CN[C@H](CO)C(=O)O)c1` [Example 3.054]: the IC50 is less than 100 nM. For `Cc1cc(C#N)cc(COc2cc(O[C@H]3CCc4c(-c5ccccc5F)cccc43)c(Cl)cc2CN[C@@H](CO)C(=O)O)c1` [Example 3.055] the value was 100 to 500 nM; for `N#Cc1cncc(COc2cc(O[C@H]3CCc4c(-c5ccccc5F)cccc43)c(Cl)cc2CN[C@@H](Cc2c[nH]cn2)C(=O)NCC(=O)NCC(=O)O)c1` [Example 3.056], 500 to 20000 nM. The value for `N#Cc1cncc(COc2cc(O[C@H]3CCc4c(-c5ccc6c(c5F)OCCO6)cccc43)c(Cl)cc2CNC(CO)(CO)CO)c1` [Example 3.057] was less than 100 nM; that for `C[C@H](NCc1cc(Cl)c(O[C@H]2CCc3c(-c4ccccc4F)cccc32)cc1OCc1cncc(C#N)c1)C(=O)NCC(=O)O` [Example 3.058] was 100 to 500 nM; that for `N#Cc1cncc(COc2cc(O[C@H]3CCc4c(-c5ccccc5F)cccc43)c(Cl)cc2CNCc2c[nH]cn2)c1` [Example 3.059] was less than 100 nM. As for `C[C@H](NC(=O)[C@H](C)NCc1cc(Cl)c(O[C@H]2CCc3c(-c4ccccc4F)cccc32)cc1OCc1cncc(C#N)c1)C(=O)O` [Example 3.060], the IC50 is less than 100 nM. `N#Cc1cncc(COc2cc(O[C@H]3CCc4c(-c5ccccc5F)cccc43)c(Cl)cc2CNCC(=O)NCC(=O)O)c1` [Example 3.062]: the IC50 was less than 100 nM. With `N#Cc1cc(Br)cc(COc2cc(O[C@H]3CCc4c(-c5ccccc5F)cccc43)c(Cl)cc2CN[C@@H](CO)C(=O)O)c1` [Example 3.063], the IC50 is less than 100 nM.

For the compound `C[C@@H](O)[C@@H](CC(=O)O)NCc1cc(Cl)c(O[C@@H]2CCc3c(-c4ccccc4F)cccc32)cc1OCc1cncc(C#N)c1` [Example 3.064], the IC50 was in the range of 500 to 20000 nM. Regarding `N#Cc1cncc(COc2cc(O[C@H]3CCc4c(-c5ccccc5F)cccc43)c(Cl)cc2CNC2CC(=O)NC(=O)C2)c1` [Example 3.065], the IC50 is 500 to 20000 nM. As for `CC(NCc1cc(Cl)c(O[C@H]2CCc3c(-c4ccccc4F)cccc32)cc1OCc1cncc(C#N)c1)c1ccn(C)n1` (some centres unmarked) [Example 3.066], the IC50 was in the range of 100 to 500 nM.

Regarding `N#Cc1cncc(COc2cc(O[C@H]3CCc4c(-c5ccccc5F)cccc43)c(Cl)cc2CN[C@H]2CC[C@H](O)CC2)c1` [Example 3.068], the IC50 was less than 100 nM. For `N#Cc1cncc(COc2cc(O[C@@H]3CCc4c(-c5ccccc5F)cccc43)c(Cl)cc2CN[C@H](CO)C(=O)O)c1` [Example 3.069] the value was less than 100 nM; for `N#Cc1cncc(COc2cc(OC3CCc4c(-c5ccccc5F)cccc43)c(F)cc2CN[C@@H](CO)C(=O)O)c1` (some centres unmarked) [Example 3.070], less than 100 nM; for `N#Cc1cncc(COc2cc(O[C@H]3CCc4c(-c5ccccc5F)cccc43)c(Cl)cc2CN[C@@H]2CCCC[C@H]2O)c1` [Example 3.071], less than 100 nM. As to `N#Cc1cncc(COc2cc(O[C@H]3CCc4c(-c5ccccc5F)cccc43)c(Cl)cc2CNC2CCOCC2)c1` [Example 3.072], the IC50 was less than 100 nM. For `N#Cc1cncc(COc2cc(O[C@H]3CCc4c(-c5ccccc5F)cccc43)c(Cl)cc2CN2C[C@H](O)[C@@H](O)[C@H](O)[C@H]2CO)c1` [Example 3.073] the value was 500 to 20000 nM; for `CCN(CC)CCCC(C)NCc1cc(Cl)c(O[C@H]2CCc3c(-c4ccccc4F)cccc32)cc1OCc1cncc(C#N)c1` (some centres unmarked) [Example 3.074], less than 100 nM.
